Source: patent US8883410B2, “Method for determining the stability of organic methyleneamines in the presence of semicarbazide-sensitive amine oxidase” (Sanofi, priority 2007, dated 2014)

Biological target: T1, human SSAO T2 (Met211-Asn763), C-terminal 6xHIS tag (Homo sapiens, UniProt Q16853)
T1 construct: T2 (Met211-Asn763) Representing the Putative Catalytic Domain; expressed in transfected cells; cell lysate
T1 sequence (Q16853 211-763): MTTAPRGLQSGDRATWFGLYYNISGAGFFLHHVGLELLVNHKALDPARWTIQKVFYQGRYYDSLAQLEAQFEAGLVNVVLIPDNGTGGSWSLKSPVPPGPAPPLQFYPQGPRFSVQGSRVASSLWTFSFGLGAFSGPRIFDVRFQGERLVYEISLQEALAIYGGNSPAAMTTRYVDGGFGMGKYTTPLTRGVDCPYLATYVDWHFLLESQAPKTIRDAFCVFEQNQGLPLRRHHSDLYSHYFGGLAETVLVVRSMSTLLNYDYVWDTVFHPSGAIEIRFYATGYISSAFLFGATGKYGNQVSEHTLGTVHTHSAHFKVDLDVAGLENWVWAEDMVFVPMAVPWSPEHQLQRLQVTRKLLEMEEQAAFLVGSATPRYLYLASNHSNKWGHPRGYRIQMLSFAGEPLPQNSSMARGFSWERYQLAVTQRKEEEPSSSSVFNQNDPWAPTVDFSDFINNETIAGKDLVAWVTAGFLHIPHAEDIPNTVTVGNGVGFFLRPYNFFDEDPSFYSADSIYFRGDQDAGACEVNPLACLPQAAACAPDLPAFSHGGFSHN
Experiment: Benzylamine stability in lysate of cells expressing T2 SSAO with C-terminal 6xHIS tag, LC/MS/MS
Format: in vitro ADME
Method: 4) T2 (Met211-Asn763) Representing the Putative Catalytic Domain.
The expression constructs were prepared by cloning these PCR products into the pCDNA5-FRT-To-DEST vector (Invitrogen, Gateway System™). The forward and reverse DNA sequence of each construct was confirmed including expressed sequences and at least 100 base pairs either side of this. Stable cell lines for Flp-In CHO, Flp-In CHO T-Rex, and Flp-In HEK 293 (Invitrogen, Flp-In system™) were generated using these 6 constructs according to manufacturer's instructions. Cells were co-transfected with the regulatory vector, pOG44, and each of the pCDNA5-FRT-To-DEST constructs using Lipfectamine (Invitrogen) according to manufacturer's instructions. Thus, 18 cell lines were generated: CHO Flp-In full-length SSAO; CHO Flp-In full-length SSAO with C-terminal 6×HIS tag; CHO Flp-In T1 SSAO; CHO Flp-In T1 SSAO with C-terminal 6×HIS tag; CHO Flp-In T2 SSAO; CHO Flp-In T2 SSAO with C-terminal 6×HIS tag; CHO T-Rex Flp-In full-length SSAO; CHO T-Rex Flp-In full-length SSAO with C-terminal 6×HIS tag; CHO T-Rex Flp-In T1 SSAO; CHO T-Rex Flp-In T1 SSAO with C-terminal 6×HIS tag; CHO T-Rex Flp-In T2 SSAO; CHO Flp-In T2 SSAO with C-terminal 6×HIS tag; HEK 293 Flp-In full-length SSAO; HEK 293 Flp-In full-length SSAO with C-terminal 6×HIS tag; HEK 293 Flp-In T1 SSAO; HEK 293 Flp-In T1 SSAO with C-terminal 6×HIS tag; HEK 293 Flp-In T2 SSAO; HEK 293 Flp-In T2 SSAO with C-terminal 6×HIS tag.
Adherent CHO cells were cultured at 37° C., 5% CO2 in media containing Ham's F12, 10% fetal bovine serum, 2 mM L-glutamine, 1% Penicillin/Streptomycin, 300 μM hygromycin B. Adherent HEK 293 cells were cultured at 37° C., 5% CO2 in D-MEM (high glucose), 10% fetal bovine serum, 2 mM L-glutamine, and 200 μM hygromycin B. Stable transformants were identified by loss of zeocin resistance. Once the cells were 80% confluent, SSAO expression was induced by the addition of Tetracycline to 1 μg/mL. Following 18 hours, the cells were harvested using a trypsin treatment of 3 minutes, at room temperature. Cells were washed 3 times in phosphate buffered saline before flash freezing in liquid nitrogen.
For the preparation of cell lysate for activity testing, frozen cell pellets were resuspended in lysate buffer containing 10 mM Tris-HCl (pH 7.2), 150 mM NaCl, 1.5 mM MgCl2, 1% v/v NP-40 and incubated for 15 minutes on ice. Lysate was cleared by centrifugation 800×g for 10 minutes, 4° C. and stored in aliquots at −80° C. until use. Proteins were determined using Pierce Coomassie Protein Reagent, according to manufacturer's instructions.
For each assay run, 1 mL of cell lysate (1.5 mg/mL protein) was mixed with benzylamine to 2000 ng/mL final concentration. At each corresponding time point, […] the incubation mixture was transferred to a microcentrifuge tube (1.7 mL) and mixed with 50 μL of acetonitrile. The tubes were vortex mixed briefly to ensure complete mixing and then centrifuged at 10,000×g for 5 minutes. The supernatant was removed and 50 μL was transferred to an autosampler vial and mixed with 50 μL of water before LC/MS/MS analysis. Benzylamine remaining in the lysate was analyzed with LC/MS/MS method.
LC/MS/MS analysis was performed with a PE Sciex API 3000 mass spectrometer under the following conditions listed below and in Tables 1 and 2: […]

What does the source list for `NCc1ccccc1` [Benzylamine]?
Benzylamine Remaining (%) (CHO Flp-In T-Rex lysate, 0 min): 100%; Benzylamine Remaining (%) (CHO Flp-In T-Rex lysate, 10 min): 100%; Benzylamine Remaining (%) (CHO Flp-In T-Rex lysate, 2 h): 97%; Benzylamine Remaining (%) (CHO Flp-In lysate, 0 min): 100%; Benzylamine Remaining (%) (CHO Flp-In lysate, 10 min): 108%; Benzylamine Remaining (%) (CHO Flp-In lysate, 2 h): 102%; Benzylamine Remaining (%) (HEK293 lysate, 0 min): 100%; Benzylamine Remaining (%) (HEK293 lysate, 10 min): 100%; Benzylamine Remaining (%) (HEK293 lysate, 2 h): 117%
